# Test results: US20230089273A1, “METHODS FOR MATURING AN ARTERIOVENOUS FISTULA” (ALUCENT BIOMEDICAL, INC., priority 2020, published 2023)
# Key:
# [1] = system: native blood vessels, anastomosis area; assay: Fluorescence imaging of vessels after NVS and laser treatment; format: in vivo, rat; details: vessels harvested immediately after NVS and laser treatment, FIG. 1E
# Protocol: FIGS. 1C-E show photographs of the surgical procedure described in Example 1. (C) AVF surgery area was incubated with NVS solution for 5 min; (D) NVS was activated by laser at 450 nm for 1 min; (E) Fluorescent images of native blood vessels that are harvested immediately after the NVS and laser treatment. […] Femoral AVFs were created in young Wistar male rats by connecting the femoral artery (side) and femoral vein (end) in the same limb. FIGS. 1A-B show the surgical procedure. Immediately after the blood flow was restored and dilatation of the femoral vein occurred, a 10 μl -drop of a composition comprising 2 mg/ml Compound of Formula (I) in PBS was placed at the AVF perivascularly and incubated for 5 minutes, to allow the Compound of Formula (I) to diffuse into the vascular wall. The Compound of Formula (I) was activated by a 1 minute illumination by 450 nm light. A control group of young Wistar male rats received a 10 μl -drop of phosphate buffered saline and the same light activation. The rats' skin was closed immediately after light activation. FIG. 1C is a photograph of the incubation with NVS, applied perivascularly on the anastomosis to allow the compound to diffuse into the vascular tissue. […] FIG. 1E depicts fluorescence images after following light activation, 2 animals were sacrificed and their vessels observed on a fluorescence microscope at 450 nm excitation for NVS.
# [2] = system: collagen fibers in AVF medial layer; assay: Multiphoton / SHG imaging of collagen fibers in AVF; format: in vivo, rat
# Protocol: Second harmonic generation (SHG) imaging was performed on 5 μm thick formalin-fixed paraffin embedded (FFPE) sections using Leica SP8 Dive with spectral tunable detection. Collagen fiber orientation in the medial layer was analyzed in relationship to the lumen. Each sample was divided into 4 quadrants and the medial layer was examined in each quadrant; the area of examination for each quadrant was 25 μm^2. The same images were used for other collagen morphology using the MIPAR image software analysis.
# IL-6 = assay: Immunohistochemistry of the AVF: IL-6; format: in vivo, rat; details: 4 weeks
# Source text: (§1) Based on the results from the morphometric analysis in Example 1, the expression level of several molecular targets associated with AVF maturation failure (i.e., MMP2-MMP-9, Ki-67, and IL6) in the AVF vessels at the 4-week time point were selected for further investigation.
# (§2) But excessive fibrosis of the vessel walls due to local inflammation as well as the circumferential arrangement of newly synthesized collagen fibers has shown a positive association with AVF non-maturation (possibly due to decreasing the distensibility of the veins as they go through the arterialization process). MMP-9 is an inflammatory marker, and although MM-2 is usually not considered an inflammatory marker, both metalloproteinases have nearly identical ECM substrates and are important in vascular remodeling. […] Ki-67 is a marker of cell proliferation, which allows assessing the proliferation of vascular wall cells during the AVF development process.
# [3] = system: Femoral AVFs in young Wistar male rats; assay: Rat femoral AVF model, histology and morphometry (VVG); format: in vivo
# Protocol: Femoral AVFs were created in young Wistar male rats by connecting the femoral artery (side) and femoral vein (end) in the same limb. FIGS. 1A-B show the surgical procedure. Immediately after the blood flow was restored and dilatation of the femoral vein occurred, a 10 μl -drop of a composition comprising 2 mg/ml Compound of Formula (I) in PBS was placed at the AVF perivascularly and incubated for 5 minutes, to allow the Compound of Formula (I) to diffuse into the vascular wall. The Compound of Formula (I) was activated by a 1 minute illumination by 450 nm light. A control group of young Wistar male rats received a 10 μl -drop of phosphate buffered saline and the same light activation. The rats' skin was closed immediately after light activation. FIG. 1C is a photograph of the incubation with NVS, applied perivascularly on the anastomosis to allow the compound to diffuse into the vascular tissue. FIG. 1D is a photograph of the small molecule treated area being exposed to 1 minute of illumination with a 450 -nm light source. FIG. 1E depicts fluorescence images after following light activation, 2 animals were sacrificed and their vessels observed on a fluorescence microscope at 450 nm excitation for NVS.
# Rats were euthanized 1 week (early time point, 4 per group) and 4 weeks (later time point, 10 per group) post-AVF creation for histology and morphometry. Verhoeff-Van Gieson (VVG)-stained thin cross-sections were used to measure the area enclosed by internal elastic lamina (IEL), the area of open lumen, and the area of neointimal hyperplasia (NH) by Image J software. Percent open lumen area=open lumen area/IEL-enclosed area×100%. These analyses were done at three locations: the entire AVF, the AVF venous limb, and the AVF arterial limb.
# An unpaired, two-tailed t-test was used to determine the statistical significance between the two treatment groups (no-NVS (i.e., control) vs. NVS (treatment with Compound of Formula (I))) in each of the data sets, with α=0.05.
# HASMCs = assay: Cell death (apoptosis) assay, R&D system kit, HASMC; format: cell-based; details: 0.25, 2.5, 25 μg/ml, 5 min, 450 nm light 1 min, D0-D3, FIG. 12B
# Protocol: (§3) Cell death assays used the cell death detection R&D system kit to detect cell death via apoptosis. Cell density was 1×10^5 per well in a 96-well plate for R&D system kit. HUVECs and HASMCs were treated with NVS in different concentrations (0, 0.25, 2.5, and 25 μg/ml) in serum free medium for 5 minutes in the incubator. After removing NVS, cells were washed with serum free medium once, and the plate was refilled with 200 μl serum free medium in each well. Cells were treated using 450 nm light for 1 minute at room temperature, and then serum free medium was removed and each well was refilled with 200 μl of medium supplemented with 10% serum. At 0, 1, 2, and 3 days post-treatment (D0, D1, D2, and D3), cell death assay was performed according to the manufacturer's protocol. Positive controls were cells incubated with hypertonic buffer (10 mM Tris PH 7.4, 400 mM NaCl, 10 mM MgCl2) at 37° C. for 2 hours.
# MMP-2 = assay: Immunohistochemistry of the AVF: MMP-2; format: in vivo, rat; details: 4 weeks
# Source text: as §1, §2
# HUVECs = assay: Cell death (apoptosis) assay, R&D system kit, HUVEC; format: cell-based; details: 0.25, 2.5, 25 μg/ml, 5 min, 450 nm light 1 min, D0-D3, FIG. 12A
# Protocol: as §3
# Ki-67 = assay: Immunohistochemistry of the AVF: Ki-67; format: in vivo, rat; details: entire AVF, 4 weeks
# Source text: as §1, §2
# MMP-9 = assay: Immunohistochemistry of the AVF: MMP-9; format: in vivo, rat; details: 4 weeks
# Source text: as §1, §2
# [4] = week 4, trend, not statistically different
structure (smiles),measurement,setting,value
"NCCOCCOCCNc1ccc2c3c(cccc13)C(=O)N(CCOCCOCCN1C(=O)c3cccc4c(NCCOCCOCCN)ccc(c34)C1=O)C2=O [NVS, 2,2′-((ethane-1,2-diylbis(oxy))bis(ethane-2,1-diyl))bis(6-((2-(2-(2-aminoethoxy)ethoxy)ethyl)amino)-1H-benzo[de]isoquinoline-1,3(2H)-dione)]",penetration into vascular tissue (green fluorescence),[1],penetration throughout the anastomosis area
same,analyzed regions exhibiting favorable collagen orientation for AVF maturation,"[2]; AVFs at week 4, not statistically significant vs PBS (25%)",58%
same,"collagen shape features (roundness, roughness, eccentricity) vs PBS treated samples",[2]; [4],more defined shape features
same,overall collagen area vs PBS treated samples,[2]; [4],less overall collagen area
same,"IL-6 mean gray value, fold lower than PBS group","IL-6; arterial limb, p=0.015, FIG. 10C",1.6 fold
same,"IL-6 mean gray value, fold lower than PBS group","IL-6; entire AVF, p=0.027, FIG. 10C",1.4 fold
same,IL-6 expression level vs PBS group,IL-6; venous limb,trending lower
same,"AVF venous limb % open lumen area, fold larger than control","[3]; 4 weeks, p=0.009, FIG. 6",1.98 fold
same,"AVF venous limb open lumen area, fold larger than control","[3]; 4 weeks, p=0.014, FIG. 6",4.18 fold
same,"entire AVF % open lumen area, fold larger than control","[3]; 4 weeks, p=0.052, FIG. 5",1.49 fold
same,"entire AVF open lumen area, fold larger than control","[3]; 4 weeks, p=0.062, FIG. 5",2.25 fold
same,tolerability of treatment,"[3]; 10 μl drop of 2 mg/ml in PBS perivascular, 5 min, 450 nm light 1 min",tolerated the treatment well
same,venous diameter vs PBS control,[3]; by 4 weeks after AVF creation surgery,enlarged venous diameter
same,"all four morphometric parameters (IEL-enclosed area, neointimal lesion area, open lumen area, % area of open lumen) vs PBS","[3]; entire AVF, 1 week",similar
same,NH (neointimal hyperplasia) area vs control,[3]; regardless of the locations,without significantly affecting
same,"AVF open lumen area, effect of treatment",[3]; summary statement,significantly increased
same,cell death via apoptosis,HASMCs,minimal cell death
same,MMP-2 expression level vs PBS group,MMP-2; arterial limb,trending lower
same,MMP-2 expression level vs PBS group,MMP-2; entire AVF,trending lower
same,"MMP-2 area stained positive, fold lower than PBS group","MMP-2; venous limb, p=0.015, FIG. 8C",1.8 fold
same,cell death via apoptosis,HUVECs,minimal cell death
same,Ki-67 expression level vs PBS group,Ki-67,similar
same,"MMP-9 % area stained positive, fold lower than PBS group","MMP-9; arterial limb, p=0.036, FIG. 9D",2.4 fold
same,MMP-9 expression level vs PBS group,MMP-9; entire AVF,trending lower
same,"MMP-9 % area stained positive, fold lower than PBS group","MMP-9; venous limb, p=0.019, FIG. 9D",1.8 fold
